Measurements: the NIST ThermoML archive (doi:10.1016/j.jct.2006.10.017)

Assays:
[1] = xn = mol fraction of the nth substance listed; conditions: 101 kPa, Liquid
[2] = refractive index (Na D-line) (dimensionless); xn = mol fraction of the nth substance listed; conditions: 101 kPa, Liquid

COS(=O)(=O)[O-].Cn1cc[n+](C)c1 [1,3-dimethylimidazolium methylsulfate] + CCO
Conditions | mass density, 293.15 K [kg/m3] | mass density, 298.15 K [kg/m3] | mass density, 303.15 K [kg/m3] | refractive index, 293.15 K | refractive index, 298.15 K | refractive index, 303.15 K | speed of sound, 293.15 K [m/s] | speed of sound, 298.15 K [m/s] | speed of sound, 303.15 K [m/s]
[1], x1 = 0.0738 | 891.5 | 887.4 | 883.3 | – | – | – | 1241 | 1226 | 1211
[1], x1 = 0.1356 | 959.7 | 955.7 | 951.7 | – | – | – | 1305 | 1291 | 1277
[1], x1 = 0.2275 | 1040.6 | 1036.7 | 1032.8 | – | – | – | 1396 | 1383 | 1370
[1], x1 = 0.3317 | 1111.6 | 1107.8 | 1104 | – | – | – | 1490 | 1477 | 1465
[1], x1 = 0.429 | 1163.9 | 1160.2 | 1156.5 | – | – | – | 1568 | 1555 | 1542
[1], x1 = 0.5395 | 1211.1 | 1207.5 | 1203.8 | – | – | – | 1642 | 1629 | 1617
[1], x1 = 0.6331 | 1243.6 | 1239.9 | 1236.3 | – | – | – | 1693 | 1681 | 1668
[1], x1 = 0.7308 | 1272 | 1268.4 | 1264.8 | – | – | – | 1737 | 1725 | 1713
[1], x1 = 0.8142 | 1293 | 1289.3 | 1285.7 | – | – | – | 1769 | 1757 | 1745
[1], x1 = 0.9081 | 1313.3 | 1309.7 | 1306.1 | – | – | – | 1800 | 1787 | 1775
[1], x1 = 0.9512 | 1321.7 | 1318.1 | 1314.5 | – | – | – | 1812 | 1800 | 1788
[1], x1 = 1 | 1330.9 | 1327.2 | 1323.7 | – | – | – | 1826 | 1813 | 1801
[2], x1 = 0.0738 | – | – | – | 1.3881 | 1.38734 | 1.38689 | – | – | –
[2], x1 = 0.1356 | – | – | – | 1.40426 | 1.40398 | 1.40322 | – | – | –
[2], x1 = 0.2275 | – | – | – | 1.42272 | 1.42173 | 1.42109 | – | – | –
[2], x1 = 0.3317 | – | – | – | 1.43794 | 1.43648 | 1.4356 | – | – | –
[2], x1 = 0.429 | – | – | – | 1.44915 | 1.44761 | 1.44677 | – | – | –
[2], x1 = 0.5395 | – | – | – | 1.45944 | 1.45819 | 1.45699 | – | – | –
[2], x1 = 0.6331 | – | – | – | 1.4665 | 1.4651 | 1.46385 | – | – | –
[2], x1 = 0.7308 | – | – | – | 1.472 | 1.47068 | 1.4694 | – | – | –
[2], x1 = 0.8142 | – | – | – | 1.47624 | 1.47489 | 1.47353 | – | – | –
[2], x1 = 0.9081 | – | – | – | 1.48029 | 1.47895 | 1.47763 | – | – | –
[2], x1 = 0.9512 | – | – | – | 1.48211 | 1.48079 | 1.47949 | – | – | –
[2], x1 = 1 | – | – | – | 1.48392 | 1.4827 | 1.48129 | – | – | –

CCCCCCCC[n+]1ccn(C)c1.F[P-](F)(F)(F)(F)F [1-octyl-3-methylimidazolium hexafluorophosphate] + CCO
Conditions | mass density, 293.15 K [kg/m3] | mass density, 298.15 K [kg/m3] | mass density, 303.15 K [kg/m3] | refractive index, 293.15 K | refractive index, 298.15 K | refractive index, 303.15 K | speed of sound, 293.15 K [m/s] | speed of sound, 298.15 K [m/s] | speed of sound, 303.15 K [m/s]
[1], x1 = 0.0447 | 873.9 | 869.7 | 865.4 | – | – | – | 1180 | 1165 | 1151
[1], x1 = 0.0982 | 946.5 | 942.3 | 938.1 | – | – | – | 1206 | 1193 | 1180
[1], x1 = 0.1976 | 1035.8 | 1031.7 | 1027.5 | – | – | – | 1257 | 1245 | 1233
[1], x1 = 0.2897 | 1089.5 | 1085.3 | 1081.1 | – | – | – | 1295 | 1283 | 1271
[1], x1 = 0.3897 | 1130.4 | 1126.3 | 1122.2 | – | – | – | 1327 | 1315 | 1303
[1], x1 = 0.499 | 1162.8 | 1158.8 | 1154.8 | – | – | – | 1352 | 1340 | 1328
[1], x1 = 0.5896 | 1183.2 | 1179.3 | 1175.3 | – | – | – | 1369 | 1357 | 1344
[1], x1 = 0.708 | 1204.3 | 1200.4 | 1196.5 | – | – | – | 1386 | 1373 | 1360
[1], x1 = 0.8037 | 1217.9 | 1214 | 1210.2 | – | – | – | 1398 | 1385 | 1372
[1], x1 = 0.904 | 1229.9 | 1226 | 1222.2 | – | – | – | 1411 | 1397 | 1383
[1], x1 = 0.9502 | 1234.7 | 1230.9 | 1227.1 | – | – | – | 1416 | 1401 | 1387
[1], x1 = 1 | 1239.6 | 1235.7 | 1231.9 | – | – | – | 1424 | 1408 | 1393
[2], x1 = 0.0447 | – | – | – | 1.37484 | 1.37299 | 1.37124 | – | – | –
[2], x1 = 0.0982 | – | – | – | 1.38484 | 1.38315 | 1.38286 | – | – | –
[2], x1 = 0.1976 | – | – | – | 1.3975 | 1.3959 | 1.39478 | – | – | –
[2], x1 = 0.2897 | – | – | – | 1.40449 | 1.40291 | 1.40181 | – | – | –
[2], x1 = 0.3897 | – | – | – | 1.41009 | 1.40855 | 1.40752 | – | – | –
[2], x1 = 0.499 | – | – | – | 1.41448 | 1.41289 | 1.41174 | – | – | –
[2], x1 = 0.5896 | – | – | – | 1.41703 | 1.41553 | 1.41412 | – | – | –
[2], x1 = 0.708 | – | – | – | 1.41965 | 1.41817 | 1.41682 | – | – | –
[2], x1 = 0.8037 | – | – | – | 1.4215 | 1.42004 | 1.41858 | – | – | –
[2], x1 = 0.904 | – | – | – | 1.42304 | 1.42165 | 1.42026 | – | – | –
[2], x1 = 0.9502 | – | – | – | 1.42375 | 1.42231 | 1.42112 | – | – | –
[2], x1 = 1 | – | – | – | 1.4244 | 1.42302 | 1.42165 | – | – | –

CCO [ethanol] + COS(=O)(=O)[O-].Cn1cc[n+](C)c1
x2 = 0
Conditions | mass density, 293.15 K [kg/m3] | mass density, 298.15 K [kg/m3] | mass density, 303.15 K [kg/m3] | refractive index, 293.15 K | refractive index, 298.15 K | refractive index, 303.15 K | speed of sound, 293.15 K [m/s] | speed of sound, 298.15 K [m/s] | speed of sound, 303.15 K [m/s]
[1] | 789.3 | 785.1 | 780.7 | – | – | – | 1160 | 1143 | 1127
[2] | – | – | – | 1.36138 | 1.35929 | 1.35725 | – | – | –

CCO [ethanol] + CCCCn1cc[n+](C)c1.COS(=O)(=O)[O-]
x2 = 0
Conditions | mass density, 293.15 K [kg/m3] | mass density, 298.15 K [kg/m3] | mass density, 303.15 K [kg/m3] | refractive index, 293.15 K | refractive index, 298.15 K | refractive index, 303.15 K | speed of sound, 293.15 K [m/s] | speed of sound, 298.15 K [m/s] | speed of sound, 303.15 K [m/s]
[1] | 789.3 | 785.1 | 780.7 | – | – | – | 1160 | 1143 | 1127
[2] | – | – | – | 1.36138 | 1.35929 | 1.35725 | – | – | –

CCO [ethanol] + CCCCCCCC[n+]1ccn(C)c1.F[P-](F)(F)(F)(F)F
x2 = 0
Conditions | mass density, 293.15 K [kg/m3] | mass density, 298.15 K [kg/m3] | mass density, 303.15 K [kg/m3] | refractive index, 293.15 K | refractive index, 298.15 K | refractive index, 303.15 K | speed of sound, 293.15 K [m/s] | speed of sound, 298.15 K [m/s] | speed of sound, 303.15 K [m/s]
[1] | 789.3 | 785.1 | 780.7 | – | – | – | 1160 | 1143 | 1127
[2] | – | – | – | 1.36138 | 1.35929 | 1.35725 | – | – | –

CCO [ethanol] + CCCCCCn1cc[n+](C)c1.F[P-](F)(F)(F)(F)F
x2 = 0
Conditions | mass density, 293.15 K [kg/m3] | mass density, 298.15 K [kg/m3] | mass density, 303.15 K [kg/m3] | refractive index, 293.15 K | refractive index, 298.15 K | refractive index, 303.15 K | speed of sound, 293.15 K [m/s] | speed of sound, 298.15 K [m/s] | speed of sound, 303.15 K [m/s]
[1] | 789.3 | 785.1 | 780.7 | – | – | – | 1160 | 1143 | 1127
[2] | – | – | – | 1.36138 | 1.35929 | 1.35725 | – | – | –
